This note sets out measurements from publication PMC8938680 (2022).

For the assay, the system named is E. coli thiM TPP riboswitch (ITC construct) (RNA, riboswitch) GGCAGUACUCGGGGUGCCCUUCUGCGUGAAGGCUGAGAAAUACCCGUAUCACCUGAUCUGGAUAAUGCCAGCGUAGGGAAGUGCUG
The experiment in a line: ITC. The settings on record: 1 mM MgCl2, 200 mM potassium acetate; 100 mM HEPES-Na pH 8.0, 25 °C.

`Cc1ncc(C[n+]2csc(CCO)c2C)c(N)n1` gave a KT of 11 µM.
Compound `Cc1ncc(C[n+]2csc(CCOP(=O)(O)CP(=O)(O)O)c2C)c(N)n1` registered a KL of 19 nM.
